Source: patent US20240158446A1, “CYCLIC COMPOUND HAVING SELECTIVE INHIBITORY ACTION ON KRAS OVER HRAS AND NRAS” (CHUGAI SEIYAKU KABUSHIKI KAISHA, priority 2021, published 2024)
*1 amine or outer side, *2 acyl side, *3 side chain or, on linkers, in order; H or OH if unused. Where a SMILES comes first, the peptide text is derived from it. Bridges are numbered along the chain shown (N, C = ends). [ ]: non-standard residue; d: D form. The star is where a group is joined. hPhe(3-Cl-4-CF3) = N[C@@H](CCc1ccc(C(F)(F)F)c(Cl)c1)C(=O)O; NPrPhe(4-CF3) = CCCN[C@@H](Cc1ccc(C(F)(F)F)cc1)C(=O)O; X6 = CCCN([C@@H](COCCC(C)C)C(=O)[*:2])[*:1]; X2 = CCCN([C@@H](COC1CCC1)C(=O)[*:2])[*:1]; X4 = CCCN([C@@H](CC(C)C)C(=O)[*:2])[*:1]; NMeGly(cPent) = CN[C@H](C(=O)O)C1CCCC1; NMeD = CN[C@@H](CC(=O)O)C(=O)O; NMeL = CN[C@@H](CC(C)C)C(=O)O; Morpholide = C1CN(*)CCO1; NMeA = CN[C@@H](C)C(=O)O; Aze = O=C(O)[C@@H]1CCN1; Ac4c = NC1(C(=O)O)CCC1; Sar = CNCC(=O)O

Experiments:
[1] = target: GDP-bound NRAS wild-type protein (Homo sapiens, UniProt P01111); experiment: Binding to NRAS by surface plasmon resonance (SPR), Single Cycle Kinetics; settings: ratio of KD for GDP-bound NRAS wild-type protein to KD for KRAS, SPR
[2] = target: GDP-bound HRAS wild-type protein (Homo sapiens, UniProt P01112); experiment: Binding to HRAS by surface plasmon resonance (SPR), Single Cycle Kinetics; settings: ratio of KD for GDP-bound HRAS wild-type protein to KD for KRAS, SPR
[3] = tested on: human lung cancer strain NCI-H441; experiment: cells; settings: NCI-H441, 96 h, read-out: NCI-H441 IC50 (nM), NCI-H441 cell proliferation, 4 days, CellTiter-Glo;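 note: cell proliferation inhibition after four days measured by CellTiter-Glo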
[4] = target: GDP-bound KRAS wild-type protein (Homo sapiens, UniProt P01116); experiment: Binding to KRAS by surface plasmon resonance (SPR), Single Cycle Kinetics; settings: SPR, Single Cycle Kinetics, GDP-bound KRAS wild-type protein; read-out: KRAS KD
GDP-bound KRAS wild-type protein, sequence (P01116 whole entry): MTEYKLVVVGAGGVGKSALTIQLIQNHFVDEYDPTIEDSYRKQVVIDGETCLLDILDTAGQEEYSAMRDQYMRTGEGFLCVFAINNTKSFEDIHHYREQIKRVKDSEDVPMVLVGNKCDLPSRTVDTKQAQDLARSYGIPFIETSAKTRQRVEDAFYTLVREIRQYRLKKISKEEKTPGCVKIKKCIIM

GDP-bound NRAS wild-type protein, sequence (P01111 whole entry): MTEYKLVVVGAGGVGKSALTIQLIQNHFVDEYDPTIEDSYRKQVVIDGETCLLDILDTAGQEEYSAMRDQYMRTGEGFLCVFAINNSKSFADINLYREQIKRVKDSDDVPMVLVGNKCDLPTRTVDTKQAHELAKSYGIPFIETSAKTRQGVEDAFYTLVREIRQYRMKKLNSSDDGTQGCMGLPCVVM
GDP-bound HRAS wild-type protein, sequence (P01112 whole entry): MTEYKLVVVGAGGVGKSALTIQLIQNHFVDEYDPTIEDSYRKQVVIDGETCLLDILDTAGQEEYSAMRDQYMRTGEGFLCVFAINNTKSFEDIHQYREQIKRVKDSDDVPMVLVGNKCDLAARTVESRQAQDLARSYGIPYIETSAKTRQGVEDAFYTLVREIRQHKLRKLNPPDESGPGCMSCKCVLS

Row | SMILES | IC50 [3] | Kd [4] | NRAS/KRAS (KD ratio) [1] | HRAS/KRAS (KD ratio) [2]
1 | CC[C@H](C)[C@@H]1NC(=O)[C@H](CC)N(C)C(=O)C[C@@H](C(=O)N(C)C)N(C)C(=O)[C@H](C2CCCC2)N(C)C(=O)C2(CCCC2)N(C)C(=O)[C@@H]2CCCN2C(=O)[C@H](CCc2cc(F)c(C(F)(F)F)c(F)c2)NC(=O)CN(C)C(=O)[C@H](Cc2ccc(C)cc2)N2CC/C=C\C[C@@H](C2=O)N(C)C(=O)CN(C)C1=O [PP1807] | 5 nM | 0.062 nM | A (a compound having 10 or more and less than 20 is denoted as A) | B (a compound having 3 or more and less than 10 is denoted as B)
2 | CCO[C@@H]1C[C@H]2C(=O)N(C)C3(CCCC3)C(=O)N(C)[C@@H](C3CCCC3)C(=O)N(C)[C@H](C(=O)N(C)C)CC(=O)N(C)[C@@H](C3CC3)C(=O)N[C@@H]([C@@H](C)CC)C(=O)N(C)CC(=O)N(C)[C@H]3C/C=C\CCN(C3=O)[C@@H](Cc3ccc(C)cc3)C(=O)N(C)CC(=O)N[C@@H](CCc3cc(F)c(C(F)(F)F)c(F)c3)C(=O)N2C1 [PP1808] | 8.8 nM | 0.084 nM | A (a compound having 10 or more and less than 20 is denoted as A) | B (a compound having 3 or more and less than 10 is denoted as B)
3 | CC[C@H](C)[C@@H]1NC(=O)[C@H](C2CC2)N(C)C(=O)C[C@@H](C(=O)N(C)C)N(C)C(=O)[C@H](C2CCCC2)N(C)C(=O)C2(CCCC2)N(C)C(=O)[C@@H]2CCCN2C(=O)[C@H](CCc2cc(F)c(C(F)(F)F)c(F)c2)NC(=O)CN(C)C(=O)[C@H](Cc2ccc(C)cc2)N2CC/C=C\C[C@@H](C2=O)N(C)C(=O)CN(C)C1=O [PP1809] | 22.4 nM | 0.12 nM | A (a compound having 10 or more and less than 20 is denoted as A) | B (a compound having 3 or more and less than 10 is denoted as B)
4 | CCO[C@@H]1C[C@H]2C(=O)N(C)C3(CCCC3)C(=O)N(C)[C@@H](C3CCCC3)C(=O)N(C)[C@H](C(=O)N(C)C)CC(=O)N(C)[C@@H](CC)C(=O)N[C@@H]([C@@H](C)CC)C(=O)N3CCC[C@H]3C(=O)N(C)[C@H]3C/C=C\CCN(C3=O)[C@@H](Cc3ccc(C)cc3)C(=O)N(C)CC(=O)N[C@@H](CCc3cc(F)c(C(F)(F)F)c(F)c3)C(=O)N2C1 [PP1810] | 4.6 nM | 0.16 nM | A (a compound having 10 or more and less than 20 is denoted as A) | B (a compound having 3 or more and less than 10 is denoted as B)
5 | CC[C@H](C)[C@@H]1NC(=O)[C@H](CC)N(C)C(=O)C[C@@H](C(=O)N(C)C)N(C)C(=O)[C@H](C2CCCC2)N(C)C(=O)C2(CCCC2)N(C)C(=O)[C@@H]2CCCN2C(=O)[C@H](CCc2cc(F)c(C(F)(F)F)c(F)c2)NC(=O)CN(C)C(=O)[C@H](Cc2ccc(C)cc2)N2CC/C=C\C[C@@H](C2=O)N(C)C(=O)[C@@H]2CCCN2C1=O [PP1811] | 14.3 nM | 0.23 nM | A (a compound having 10 or more and less than 20 is denoted as A) | B (a compound having 3 or more and less than 10 is denoted as B)
6 | CC[C@H](C)[C@@H]1NC(=O)[C@H](CC)N(C)C(=O)C[C@@H](C(=O)N(C)C)N(C)C(=O)[C@H](C2CCCC2)N(C)C(=O)C2(CCCC2)N(C)C(=O)[C@@H]2C[C@@H](C)CN2C(=O)[C@H](CCc2cc(F)c(C(F)(F)F)c(F)c2)NC(=O)CN(C)C(=O)[C@H](Cc2ccc(C)cc2)N2CC/C=C\C[C@@H](C2=O)N(C)C(=O)CN(C)C1=O [PP1812] | 7.8 nM | 0.059 nM | A (a compound having 10 or more and less than 20 is denoted as A) | A (a compound having 10 or more and less than 20 is denoted as A)
7 | CC[C@H](C)[C@@H]1NC(=O)[C@H](C2CC2)N(C)C(=O)C[C@@H](C(=O)N(C)C)N(C)C(=O)[C@H](C2CCCC2)N(C)C(=O)C2(CCCC2)N(C)C(=O)[C@@H]2C[C@@H](C)CN2C(=O)[C@H](CCc2cc(F)c(C(F)(F)F)c(F)c2)NC(=O)CN(C)C(=O)[C@H](Cc2ccc(C)cc2)N2CC/C=C\C[C@@H](C2=O)N(C)C(=O)CN(C)C1=O [PP1813] | 22.6 nM | 0.12 nM | A (a compound having 10 or more and less than 20 is denoted as A) | B (a compound having 3 or more and less than 10 is denoted as B)

Second part, led by results:

Row | IC50 [3] | Kd [4] | SMILES | NRAS/KRAS (KD ratio) [1] | HRAS/KRAS (KD ratio) [2]
8 | 26.2 nM | 0.27 nM | CC[C@H](C)[C@@H]1NC(=O)[C@H](CC)N(C)C(=O)C[C@@H](C(=O)N(C)C)N(C)C(=O)[C@H](C2CCCC2)N(C)C(=O)C2(CCCC2)N(C)C(=O)[C@@H]2C[C@@H](C)CN2C(=O)[C@H](CCc2cc(F)c(C(F)(F)F)c(F)c2)NC(=O)CN(C)C(=O)[C@H](Cc2ccc(C)cc2)N2CC/C=C\C[C@@H](C2=O)N(C)C(=O)[C@@H]2CCCN2C1=O [PP1814] | A (a compound having 10 or more and less than 20 is denoted as A) | A (a compound having 10 or more and less than 20 is denoted as A)
9 | 83 nM | 0.34 nM | CCCN1C(=O)C[C@@H](C(=O)N2CCOCC2)N(C)C(=O)[C@H](C2CCCC2)N(C)C(=O)C2(CCC2)NC(=O)[C@@H]2CCCN2C(=O)[C@H](CCc2ccc(C(F)(F)F)c(Cl)c2)NC(=O)CN(C)C(=O)[C@H](Cc2ccc(C(F)(F)F)cc2)N(CCC)C(=O)CN(C)C(=O)CN(C)C(=O)[C@H](C(C)C)NC(=O)[C@@H]1CC(C)C [PP1815] ([X4]V[Sar][Sar][NPrPhe(4-CF3)][Sar][hPhe(3-Cl-4-CF3)]P[Ac4c][NMeGly(cPent)][NMeD]-Morpholide; lactam N-11) | B (a compound having 3 or more and less than 10 is denoted as B) | B (a compound having 3 or more and less than 10 is denoted as B)
10 | 63.8 nM | 1.2 nM | CCCN1C(=O)CN(C)C(=O)CN(C)C(=O)[C@H]([C@@H](C)CC)NC(=O)[C@H](CC(C)C)N(C)C(=O)C[C@@H](C(=O)N2CCOCC2)N(C)C(=O)[C@H](C2CCCC2)N(C)C(=O)C2(CCC2)NC(=O)[C@@H]2CCCN2C(=O)[C@H](CCc2ccc(C(F)(F)F)c(Cl)c2)NC(=O)CN(C)C(=O)[C@@H]1COC1CCC1 [PP1816] ([NMeL]I[Sar][Sar][X2][Sar][hPhe(3-Cl-4-CF3)]P[Ac4c][NMeGly(cPent)][NMeD]-Morpholide; lactam N-11) | B (a compound having 3 or more and less than 10 is denoted as B) | C (A compound having a KD ratio of 0.1 or more and less than 3 is denoted as C)
11 | 20.4 nM | 0.47 nM | CCCN1C(=O)CN(C)C(=O)CN(C)C(=O)[C@H]([C@@H](C)CC)NC(=O)[C@H](CC(C)C)N(C)C(=O)C[C@@H](C(=O)N2CCOCC2)N(C)C(=O)[C@H](C2CCCC2)N(C)C(=O)C2(CCC2)NC(=O)[C@@H]2CCCN2C(=O)[C@H](CCc2ccc(C(F)(F)F)c(Cl)c2)NC(=O)CN(C)C(=O)[C@@H]1COCCC(C)C [PP1817] ([NMeL]I[Sar][Sar][X6][Sar][hPhe(3-Cl-4-CF3)]P[Ac4c][NMeGly(cPent)][NMeD]-Morpholide; lactam N-11) | C (A compound having a KD ratio of 0.1 or more and less than 3 is denoted as C) | C (A compound having a KD ratio of 0.1 or more and less than 3 is denoted as C)
12 | 74.8 nM | 0.9 nM | CCCN1C(=O)[C@@H]2CCN2C(=O)[C@H](C)N(C)C(=O)[C@H]([C@@H](C)CC)NC(=O)[C@H](CC(C)C)N(C)C(=O)C[C@@H](C(=O)N2CCOCC2)N(C)C(=O)[C@H](C2CCCC2)N(C)C(=O)C2(CCC2)NC(=O)[C@@H]2CCCN2C(=O)[C@H](CCc2ccc(C(F)(F)F)c(Cl)c2)NC(=O)CN(C)C(=O)[C@@H]1COC1CCC1 [PP1818] ([NMeL]I[NMeA][Aze][X2][Sar][hPhe(3-Cl-4-CF3)]P[Ac4c][NMeGly(cPent)][NMeD]-Morpholide; lactam N-11) | C (A compound having a KD ratio of 0.1 or more and less than 3 is denoted as C) | B (a compound having 3 or more and less than 10 is denoted as B)
13 | 105 nM | 0.63 nM | CCO[C@@H]1C[C@H]2C(=O)NC3(CCC3)C(=O)N(C)[C@@H](C3CCCC3)C(=O)N(C)[C@H](C(=O)N(C)C)CC(=O)N(C)[C@@H](CC)C(=O)N[C@@H]([C@@H](C)CC)C(=O)N(C)CC(=O)N(C)[C@H]3C/C=C\CCN(C3=O)[C@@H](Cc3ccc(C(F)(F)F)cc3)C(=O)N(C)CC(=O)N[C@@H](CCc3cc(C)c(Cl)c(C)c3)C(=O)N2C1 [PP1821] | A (a compound having 10 or more and less than 20 is denoted as A) | A (a compound having 10 or more and less than 20 is denoted as A)
14 | 107 nM | 1.1 nM | CC[C@H](C)[C@@H]1NC(=O)[C@H](CC)N(C)C(=O)C[C@@H](C(=O)N(C)C)N(C)C(=O)[C@H](C2CCCC2)N(C)C(=O)C2(CCC2)NC(=O)[C@@H]2CCCN2C(=O)[C@H](CCc2cc(C)c(Cl)c(C)c2)NC(=O)CN(C)C(=O)[C@H](Cc2ccc(C(F)(F)F)cc2)N2CC/C=C\C[C@@H](C2=O)N(C)C(=O)CN(C)C1=O [PP1822] | A (a compound having 10 or more and less than 20 is denoted as A) | B (a compound having 3 or more and less than 10 is denoted as B)
15 | 55.9 nM | 1 nM | CCO[C@@H]1C[C@H]2C(=O)NC3(CCCC3)C(=O)N(C)[C@@H](C3CCCC3)C(=O)N(C)[C@H](C(=O)N(C)C)CC(=O)N(C)[C@@H](CC)C(=O)N[C@@H]([C@@H](C)CC)C(=O)N(C)CC(=O)N(C)[C@H]3C/C=C\CCN(C3=O)[C@@H](Cc3ccc(C(F)(F)F)cc3)C(=O)N(C)CC(=O)N[C@@H](CCc3cc(C)c(Cl)c(C)c3)C(=O)N2C1 [PP1823] | A (a compound having 10 or more and less than 20 is denoted as A) | A (a compound having 10 or more and less than 20 is denoted as A)
